Reference: patent US8952158B2, “Tricyclic compound and use thereof” (Ono Pharmaceutical Co., Ltd., priority 2004, dated 2015)

Key:
Wistar male rat [1] = assay: Competition experiment of MBR ligand (psychological stressor, number of dejection); assay type: in vivo
Experimental: Using a Wistar male rat, psychological stressor similar to that in Biological Example 2 described above was loaded. Each treatment group was set as follows: a medium was intravenously administered (treatment group 1), the compound of the present invention (the compound of Example 38) was intravenously administered at a dose of 0.1 mg/kg (treatment group 2), an MBR selective agonist (CB34) was intravenously administered at a dose of 1 mg/kg (treatment group 3), or after the compound of the present invention (the compound of Example 38) was intravenously administered at a dose of 0.1 mg/kg, an MBR selective agonist was intravenously administered at a dose of 0.1 mg/kg (treatment group 4). In each group, stressor loading was initiated 10 minutes after administration, and the number of dejection was counted one hour later (10 animals in each group).

[2] = Oral absorbability of rat; assay type: in vivo; settings: plasma; fasted SD male rat; oral 1 mg/kg vs intravenous 0.1 mg/kg; from AUC; read-out: Bioavailability (B.A.)
Experimental: Using a fasted SD male rat (CHARLES RIVER LABORATORIES JAPAN, INC.), under the condition that the compound of the present invention (the compound of Example 38) was solubilized, the plasma concentration after administration in the tail vein at a dose of 0.1 mg/kg and the plasma concentration after gastric gavage administration at a dose of 1 mg/kg were measured. The blood was collected from a rat jugular vein under an unanesthetized condition 5, 15, and 30 minutes, and 1, 2, 3, 4, 6, and 8 hours after intravenous administration, and 15 and 30 minutes, and 1, 2, 3, 4, 6, and 8 hours after oral administration. Then the blood was centrifuged at 3000 rpm for 10 minutes and the supernatant was collected as plasma. The concentration of the compound in plasma was measured with LC/MS/MS (1100 HPLC System (Agilent Co. Ltd.), API 4000 (MDS SCIEX Ltd.)). From the obtained plasma concentration, an area under the curve (AUC, ngh/ml) and a maximum plasma concentration (Cmax, ng/mL) were calculated. In addition, Bioavailability (B.A.) of the compound of the present invention was calculated from AUC in oral administration and AUC in intravenous administration.

MBR = target: T1, MBR (Rattus norvegicus, UniProt P16257); assay: Receptor binding experiment ([3H]PK11195 competition); settings: [3H]PK11195, rat membrana cerebri specimen; Cheng and Prusoff
T1 construct: A Wistar male rat was decapitated and the whole brain was extirpated, and then the cerebellum was removed; from tissue; host or cells: Wistar male rat brain (cerebellum removed), crude membrane preparation
Experimental: Affinity of the compound of the present invention for MBR was measured using a rat membrana cerebri specimen. The measuring method of the present invention has improved measurement accuracy and measurement sensitivity so as to evaluate the compound of the present invention as follows. A Wistar male rat was decapitated and the whole brain was extirpated, and then the cerebellum was removed. For the rat membrana cerebri specimen used in the binding experiment, 50 mmol/L of an ice-cold Iris-hydrochloric acid buffer (pH 7.4) was added and it was homogenized and centrifuged. After the resulting deposit was washed, it was resuspended to be prepared to about 1 mg/ml. The binding experiment was conducted using [^3H]PK11195 as an MBR selective ligand.
In the case of calculating the all binding amount in a saturation experiment, the membrane specimen, [^3H]PK11195 at several concentrations, dimethyl sulfoxide (DMSO) in a final concentration of 0.5 vol %, and 50 mmol/L of a tris-hydrochloric acid buffer (pH 7.4) were mixed (all amount 200 μl), followed by incubation at room temperature for one hour. In the case of calculating the nonspecific binding amount, […] in a final concentration of 20 ptrnol/L was added instead of DMSO, followed by incubation for one hour. […] After the filter was dried, radioactivity was measured by a liquid scintillation counter. […]

[3] = system: male Sprague-Dawley (SD) rat; assay: Study on antistress effect (2): physical (restraint) stressor, number of dejection; assay type: in vivo; settings: oral 1 mg/kg, 30 min before restraint; 60 minutes after initiation of stressor loading
Experimental: Physical stressor was loaded using a male Sprague-Dawley (SD) rat (CHARLES RIVER LABORATORIES JAPAN, INC., 7 week old at being used) (Gastroenterology 1988; 94: pp. 611-622; Jpn. J. Phrmacol. 1998; 77: pp. 211-217). Thirty minutes after a medium (0.5% Tween 80 physiological saline) or the compound of the present invention (the compound of Example 38) was orally administered at a dose of 1 mg/kg, stressor loading was initiated by restraining both anterior branches of the rat with a binding band (Marvel Ltd.). Evaluation was performed by measuring the number of dejection 30 and 60 minutes after the initiation of stressor loading (15 animals in each group).

Wistar male rat [4] = assay: Inhibitory action on abdominal pain in RCS loading model; assay type: in vivo; settings: oral 1 mg/kg twice a day, RCS 4 days, balloon 0-1.2 mL, versus medium treatment group (FIG. 1)
Description: A Wistar male rat (6 week old at being received) was anesthetized with pentobarbital sodium (Kyoritsu Seiyaku Corporation), its abdomen was incised and the abdominal muscle was exposed, and then Force Transducer (F-12IS-SL (STAR MEDICAL Ltd.)) was fitted. Penicillin was intramuscular administered after the operation, and a recuperative period of 5 days was set.
During from AM 9:00 to PM 5:00 on a 1st day of the initiation of stress loading, the feeding environment temperature was alternately changed to 24° C. and 2° C. in an hour interval, and during from PM 5:00 to AM 9:00 in the next morning, the rat was fed under the environment of 2° C. […]
After RCS was loaded for 4 days, abdominal pain evaluation was performed on a 5th day (10 to 12 animals in each group). […] Contraction of abdominal muscle for extension stimulation in each balloon liquid amount was recorded using the Chart software (Chart v5.0.2. (ADInstruments Inc.)) by passing the signal from the pressure transducer amplified by the amplifier (Windo Gragf (GOULD Inc.)) through the data collection system (PowerLab (ADInstruments Inc.)). During 5 minutes in which balloon extension stimulation was loaded, the number of signals from the pressure transducer in 3 minutes was counted, and the obtained number was regarded as the number of abdominal muscle contraction and set as the index of abdominal pain.

Wistar male rat [5] = assay: Study on antistress effect (1): psychological stressor, number of dejection; assay type: in vivo; settings: 30 min before stressor, counted one hour later
Experimental: Psychological stressor was loaded using a Wistar male rat (Brain Res. 1994; 641: pp. 21-28). Water was accumulated by the depth of about 10 cm in a container having a platform in the center. Thirty-minutes after a medium or the compound of the present invention (the compound of Example 38) was intravenously administered at a dose of 0.01 mg/kg or orally administered at a dose of 1 mg/kg, stressor loading was initiated, and one hour later, the number of dejection was counted (10 animals in each group). The rat administered the compound of the present invention and the rat to which the stress or was not loaded had little dejection after one hour.

Q: With `CCCN(CCC)C(=O)c1c(-c2ccc(Cl)cc2)nc2cc(Cl)cc(Cl)n12` [CB34, 5,7-dichloro-2-(4-chlorophenyl)-3-dipropylaminocarbonylimidazo[1,2-a]pyridine, reference compound] as the compound, how does the “the number of dejection: mean number” value (Wistar male rat [1]; treatment group 3: intravenous 1 mg/kg, stressor 10 min after administration, counted one hour later) read?
A: 9.5

Q: Which results are given for `COc1cc(Cl)ccc1[C@H]1c2[nH]c3cccc(F)c3c2C2(CC2)CN1C(C)=O` [Example 38, (1S)-2-acetyl-1-(4-chloro-2-methoxyphenyl)-5-fluoro-1,2,3,9-tetrahydrospiro[β-carboline-4,1′-cyclopropane]]?
A: bioavailability [2]: 86.9%; the number of dejection: mean number (Wistar male rat [1]; treatment group 2: intravenous 0.1 mg/kg, stressor 10 min after administration, counted one hour later): 7.3; the number of dejection: mean number (Wistar male rat [1]; treatment group 4: Example 38 intravenous 0.1 mg/kg, then MBR selective agonist (CB34) intravenous 0.1 mg/kg): 10.1; Ki (MBR): 0.08 nM; the number of dejection: mean number [3]: 7.5; number of abdominal muscle contraction (index of abdominal pain) (Wistar male rat [4]): significantly inhibited; the number of dejection: mean number (Wistar male rat [5]; intravenous administration 0.01 mg/kg): 8.2; the number of dejection: mean number (Wistar male rat [5]; oral administration 1 mg/kg): 6.2
